Data published in paper PMC5940383, “SMAR1 inhibits Wnt/β-catenin signaling and prevents colorectal cancer progression” (Oncotarget, 2018).
Where a SMILES comes first, the peptide text is derived from it. Where no end group is shown, it is not given here. The star is where a group is joined. Cbz = O=C(OCc1ccccc1)*

Legend:
[1] = system: SMAR1 expression in HCT116 cells and an array of CRC cell lines; test: Western blot / confocal: SMAR1 protein expression after peptide treatment; format: cell-based; settings: Wnt3a CM or rh Wnt3a ligand (200 ng/mL), LiCl 30 mM for 6 hrs, MG132 10 μM with or without Wnt3a CM
Experimental: (§1) HCT116, SW480, SW620, HCT15 and HT29 cells (obtained from NCCS, Pune) were cultured in DMEM medium with 10% Fetal Bovine Serum (Gibco) and 100 Units of Penicillin Streptomycin antibiotics (Gibco). HCT116 stable cells were generated using GFP-SMAR1, GFP-control and GFP-sh-SMAR1 plasmids. si-HDAC5 plasmid was purchased from Santa Cruz Biotechnology. Conditioned medium were prepared using L cells and L-Wnt3a cells (kind gift from Jomon Joseph, NCCS Pune). After culturing for 7 days supernatant was collected and filtered through 0.22 micron syringe filter. Cells were treated with peptides (provided by Amrita Therapeutics) for 48 hours. Lipofectamine 2000 (Invitrogen) was used for transfection purposes.
(§2) Proteins were extracted using lysis buffer (50 mM Tris-Cl pH 7.5, 5 mM EDTA, 0.5% NP40, 50 mM NaF, 1 mM DTT, 0.2 mM sodium orthovanadate, 0.5 mM PMSF, 150 mM NaCl and 1X Protease Inhibitor cocktail). 40 μg proteins were transferred to PVDF membranes by Western blotting technique and blots were blocked with 5% BSA and incubated in primary antibodies. Blots were then incubated with HRP conjugated secondary antibodies and developed in X-ray films. For IP, proteins extracted were pre-cleared with Protein A/G beads (Invitrogen) and immunoprecipitated overnight with desired antibodies. Protein A/G beads were used to pull-down the protein-antibody complex and western blot was performed to check the interaction.
For confocal studies cells were fixed with 4% para-formaldehyde solution and permeabilized using 0.1% TritonX-100 solution. Cells were incubated with 1:250 dilution SMAR1 (Bethyl) antibody for 2 hours and later with 1:250 dilution Cy3 (Life Technologies) antibody for 1 hour. Coverslips containing cells were mounted using DAPI containing mounting medium (Fluoroshield with DAPI, Sigma). Human colon paraffinized tissue sections were de-paraffinized by heating in a microwave oven and later washed with xylene and alcohol. Antigen retrieval was performed and washed with PBS for further staining with 1:250 SMAR1 (Bethyl) and 1:250 β-catenin (BD Bioscience) antibodies. […]

HCT116 cells = settings: 48 h
[2] = NOD-SCID mice, 25 mg/kg body weight intra-peritoneally on alternate days for 21 days, throughout the course of treatment
[3] = system: β-catenin expression in HCT116 cells; test: Western blot: β-catenin expression; format: cell-based; settings: Wnt3a CM or rh Wnt3a ligand (200 ng/mL)
Experimental: as §1
as §2, with “Protein A/G beads were used to pull-down the protein-antibody complex and western blot was performed to check the interaction.” left out

[4] = system: β-catenin promoter in HCT116 cells; test: ChIP: occupancy of SMAR1, HDAC5 and H3K9 Ac at β-catenin promoter; format: cell-based; settings: Wnt3a CM stimulation, mean ± SD, n = 3
Experimental: HCT116 cells were transfected with GFP-control, GFP-SMAR1, GFP-sh-SMAR1 or HDAC5 siRNA plasmids. ChIP was performed using Millipore reagents supplied according to the manufacturer's protocol. The protein-DNA complex were immunoprecipitated overnight at 4° C using SMAR1 (Bethyl), HDAC5 (Cell Signaling), H3K9Ac (Cell Signaling) or IgG (Santa Cruz Biotechnology) antibodies (1 μg each). PCR was performed with the primers flanking the binding sites of SMAR1 in β-catenin promoter. […]. The PCR conditions were 95° C for 1 minute, 55° C for 1 minute and 72° C for 1 minute for 35 cycles. The PCR amplicons obtained were run in 1% Agarose (Sigma) gel and documented.

[5] = system: β-catenin promoter (pEGFP1-β-catenin) in HCT116 cells; test: Flow cytometry of pEGFP1-β-catenin GFP expression; format: cell-based; settings: pEGFP1-β-catenin transfected HCT116 cells, 200 ng/mL rh Wnt3a ligand; n = 3, SD
Excerpt: Genomic DNA was isolated from HCT116 cells and amplified with primers flanking binding sites of SMAR1 in β-catenin promoter. […]. The amplicon was ligated into pEGFP1 vector using T4 DNA ligase (NEB) after restriction digestion with XhoI and KpnI enzymes (NEB). Plasmids were transformed into DH5α E. coli competent cells and positive clones were identified after restriction digestion with XhoI and KpnI. The cloned β-catenin promoter was christened as pEGFP1-β-catenin.
HCT116 cells were co-transfected with FLAG-SMAR1 and pEGFP1-β-catenin plasmids or treated with rh Wnt3a ligand after transfection with pEGFP1-β-catenin. For flow cytometry analysis HCT116 cells were trypsinized using Trypsin-EDTA (Gibco) and washed thrice with PBS buffer. Cells were then passed through cell strainer (BD Falcon) and collected in flow cytometry tubes. GFP expressions were quantitated by subjecting 1 × 10^4 cells to BD FACSCalibur flow cytometry. FL1 channel was used to sort and quantify the GFP cells. Using CellQuest Pro software the histogram plots were derived and the GFP percentages were calculated. The graphs corresponding to the GFP percentage were generated using SigmaPlot software.

[Cl-].[Li+] [LiCl]
SMAR1 protein level after treatment [1]: failed to downregulate SMAR1

CC(C)C[C@@H](C=O)NC(=O)[C@H](CC(C)C)NC(=O)[C@H](CC(C)C)NC(=O)OCc1ccccc1 [MG132] (Cbz-Leu-Leu-Leu-aldehyde)
SMAR1 protein level after treatment [1]: SMAR1 protein stability was observed

ATATVNAIRGSVTPAVSQFN [AT-01C]
IC50 value (MTT assay) (HCT116 cells): 10 µg/mL
adverse effects [2]: no observable adverse effects

NAIRGSVTPAVSQFN [AT-01D]
IC50 value (MTT assay) (HCT116 cells): 9.90 µg/mL
adverse effects [2]: no observable adverse effects

Wnt3a
SMAR1 protein level after treatment [1]: significant downregulation of SMAR1
β-catenin levels after Wnt3a stimulation [3]: concomitant rise in the β-catenin levels
increased H3K9 Ac occupancy in β-catenin promoter [4]: 4.72 fold
reduced occupancy of HDAC5 in β-catenin promoter [4]: 4.77 fold
reduced occupancy of SMAR1 in β-catenin promoter [4]: 4.54 fold

B1: rh Wnt3a: recombinant human (rh) Wnt3a ligand (protein, UniProt P56704 19-352, looked up)
Protein Wnt-3a: SYPIWWSLAVGPQYSSLGSQPILCASIPGLVPKQLRFCRNYVEIMPSVAEGIKIGIQECQHQFRGRRWNCTTVHDSLAIFGPVLDKATRESAFVHAIASAGVAFAVTRSCAEGTAAICGCSSRHQGSPGKGWKWGGCSEDIEFGGMVSREFADARENRPDARSAMNRHNNEAGRQAIASHMHLKCKCHGLSGSCEVKTCWWSQPDFRAIGDFLKDKYDSASEMVVEKHRESRGWVETLRPRYTYFKVPTERDLVYYEASPNFCEPNPETGSFGTRDRTCNVSSHGIDGCDLLCCGRGHNARAERRREKCRCVFHWCCYVSCQECTRVYDVHTCK
increase in GFP expression (β-catenin promoter activity) [5]: about 45%
